The conditions of data set [1]: cited from earlier work.
For data set [2] the following is noted: value used for minimum release rate; cited from earlier work.
Data set [3] deals with Xen 29. In words: Minimum inhibitory concentration against Xen 29. In kind it is cell-based, S. aureus. The conditions noted are these: Staphylococcus aureus, 29, read-out: Minimum inhibitory concentration of rifampin against Xen 29.
Data set [4] relates to Xen 29. Conditions: cited from earlier work.
For data set [5] the following is noted: human hip, assumed; cited from earlier work.
Data set [6] is described as follows: UV-Vis spectra of vancomycin eluted from unirradiated and irradiated blend. The conditions noted are these: blended in the polymeric material, with and without terminal irradiation. In kind it is physicochemical. The protocol:
Vancomycin HCl-blended UHMWPE was prepared with a concentration of 6 wt % vancomycin as described in Example 3. Consolidation was performed at 170° C. for 10 min at 20 MPa. The platens were then cooled down with air down to approximately 162° C. and then cooled down with water starting at approximately 156° C. down to about room temperature to obtain an approximately 3 mm-thick puck (approximately 10.5 mm diameter). Consolidated vancomycin-blended samples (VPE) were then either used as is or gamma irradiated at 100 kGy. UHMWPE without additives was used as control. In vitro elution of samples in all three groups was conducted in phosphate buffered saline (PBS) as described in Example 3. After no detectable vancomycin could be measured through UV-Vis, the presence of vancomycin grafted onto the surface of the polymer was determined by labeling with an anti-vancomycin antibody.

SMILES strings stand for the structures. ≈ marks a conversion by molar mass, not a printed value.

As for `CO/N=C(\C(=O)N[C@@H]1C(=O)N2C(C(=O)O)=C(CSc3nc(=O)c(=O)[nH]n3C)CS[C@H]12)c1csc(N)n1` [ceftriaxone], in data set [1], the “share of intravenous antibiotic that penetrates bone” value (from here on “share”) is recorded as 5-19%.

For `Cc1nnc(SCC2=C(C(=O)O)N3C(=O)[C@@H](NC(=O)Cn4cnnn4)[C@H]3SC2)s1` [cefazolin], the “share” value in data set [1] is 7-15%.

With `CO[C@H]1/C=C/O[C@@]2(C)Oc3c(C)c(O)c4c(O)c(c(/C=N/N5CCN(C)CC5)c(O)c4c3C2=O)NC(=O)/C(C)=C\C=C\[C@H](C)[C@H](O)[C@@H](C)[C@@H](O)[C@@H](C)[C@H](OC(C)=O)[C@@H]1C` [rifampin], the minimum inhibitory concentration in data set [2] is 1 µg/mL (≈ 1.22 µM). For the same compound, the MIC in the data set on Xen 29 [3] stood at 0.01 µg/mL (≈ 0.0122 µM).

`CN[C@H](CC(C)C)C(=O)N[C@H]1C(=O)N[C@@H](CC(N)=O)C(=O)N[C@H]2C(=O)N[C@H]3C(=O)N[C@H](C(=O)N[C@H](C(=O)O)c4cc(O)cc(O)c4-c4cc3ccc4O)[C@H](O)c3ccc(c(Cl)c3)Oc3cc2cc(c3O[C@@H]2O[C@H](CO)[C@@H](O)[C@H](O)[C@H]2O[C@H]2C[C@](C)(N)[C@H](O)[C@H](C)O2)Oc2ccc(cc2Cl)[C@H]1O` [vancomycin]: in the data set on Xen 29 [4], the “Minimum inhibitory concentration of vancomycin against Xen 29” value was 1 µg/mL. For the same compound, the “approximate clearance half-life from the joint space” value in data set [5] is around 3.5 h. Further, in data set [1], the “share” value is listed as 5-20%. Moreover, the minimum inhibitory concentration in data set [2] was 2 µg/mL (≈ 1.38 µM). Moreover, the “effect of irradiation on vancomycin (UV absorbance of eluted vancomycin)” value in data set [6] is recorded as “not affected by irradiation”.

Values taken from patent US12350403B2, “Methods of making therapeutic polymeric material” (priority 2015, dated 2025).
